In BindingDB's records for doi:10.1021/jm061152t (Abbott Laboratories, 2007):
Values joined by “and” are separate entries in the source; they are usually repeats but may differ in a detail not shown here. Identical values can stand only once.

Assays:
[1] = The binding affinities (Ki) of compounds were determined using fluorescence polarization assays (FPA) that measure their ability to competitively displace a Bad-derived peptide from Bcl-xL. IC50 values were binding affinities measured in the presence of 10% human serum. Compound efficacy (EC50) in a cellular co; conditions: pH 7.4
[2] = The binding affinities (Ki) of compounds were determined using fluorescence polarization assays (FPA) that measure their ability to competitively displace a Bad-derived peptide from Bcl-xL. Compound efficacy (EC50) in a cellular context was evaluated by testing their ability to reverse the protection from cytokine w

Row | EC50 [1] | EC50 [2] | EC50 ([2]; pH 7.4) | SMILES
1 | 680 nM | 930 nM | – | COC1(Cc2ccccc2)CCN(c2ccc(C(=O)NS(=O)(=O)c3ccc(N[C@H](CCN(C)C)CSc4ccccc4)c([N+](=O)[O-])c3)cc2)CC1 [4-(4-benzyl-4-methoxypiperidin-1-yl)-N-[(4-{[(2R)-4-(dimethylamino)-1-(phenylsulfanyl)butan-2-yl]amino}-3-nitrobenzene)sulfonyl]benzamide]
2 | 320 nM | 200 nM | – | COC1(CC2CCCCC2)CCN(c2ccc(C(=O)NS(=O)(=O)c3ccc(N[C@H](CCN(C)C)CSc4ccccc4)c([N+](=O)[O-])c3)cc2)CC1 [4-[4-(cyclohexylmethyl)-4-methoxypiperidin-1-yl]-N-[(4-{[(2R)-4-(dimethylamino)-1-(phenylsulfanyl)butan-2-yl]amino}-3-nitrobenzene)sulfonyl]benzamide]
3 | 100 nM | 200 nM | – | COC1(Cc2ccccc2Br)CCN(c2ccc(C(=O)NS(=O)(=O)c3ccc(N[C@H](CCN(C)C)CSc4ccccc4)c([N+](=O)[O-])c3)cc2)CC1 [4-{4-[(2-bromophenyl)methyl]-4-methoxypiperidin-1-yl}-N-[(4-{[(2R)-4-(dimethylamino)-1-(phenylsulfanyl)butan-2-yl]amino}-3-nitrobenzene)sulfonyl]benzamide]
4 | 230 nM | 180 nM | – | COC1(Cc2ccccc2Cl)CCN(c2ccc(C(=O)NS(=O)(=O)c3ccc(N[C@H](CCN(C)C)CSc4ccccc4)c([N+](=O)[O-])c3)cc2)CC1 [4-{4-[(2-chlorophenyl)methyl]-4-methoxypiperidin-1-yl}-N-[(4-{[(2R)-4-(dimethylamino)-1-(phenylsulfanyl)butan-2-yl]amino}-3-nitrobenzene)sulfonyl]benzamide]
5 | 350 nM | 450 nM | – | CN(C)CC[C@H](CSc1ccccc1)Nc1ccc(S(=O)(=O)NC(=O)c2ccc(N3CCC(=Cc4ccccc4Cl)CC3)cc2)cc1[N+](=O)[O-] [4-{4-[(2-chlorophenyl)methylidene]piperidin-1-yl}-N-[(4-{[(2R)-4-(dimethylamino)-1-(phenylsulfanyl)butan-2-yl]amino}-3-nitrobenzene)sulfonyl]benzamide]
6 | 1100 nM | 1600 nM | – | CN(C)CC[C@H](CSc1ccccc1)Nc1ccc(S(=O)(=O)NC(=O)c2ccc(N3CCC(=Cc4ccccc4C#N)CC3)cc2)cc1[N+](=O)[O-] [4-{4-[(2-cyanophenyl)methylidene]piperidin-1-yl}-N-[(4-{[(2R)-4-(dimethylamino)-1-(phenylsulfanyl)butan-2-yl]amino}-3-nitrobenzene)sulfonyl]benzamide]
7 | – | 160 nM and 180 nM | – | CN(C)CC[C@H](CSc1ccccc1)Nc1ccc(S(=O)(=O)NC(=O)c2ccc(N3CCC(=Cc4ccccc4-c4ccccc4)CC3)cc2)cc1[N+](=O)[O-] [N-[(4-{[(2R)-4-(dimethylamino)-1-(phenylsulfanyl)butan-2-yl]amino}-3-nitrobenzene)sulfonyl]-4-{4-[(2-phenylphenyl)methylidene]piperidin-1-yl}benzamide]
8 | – | 600 nM | 380 nM | CN(C)CC[C@H](CSc1ccccc1)Nc1ccc(S(=O)(=O)NC(=O)c2ccc(N3CCC(=Cc4ccc(F)cc4)CC3)cc2)cc1[N+](=O)[O-] [N-[(4-{[(2R)-4-(dimethylamino)-1-(phenylsulfanyl)butan-2-yl]amino}-3-nitrobenzene)sulfonyl]-4-{4-[(4-fluorophenyl)methylidene]piperidin-1-yl}benzamide]
9 | – | > 20000 nM | > 20000 nM | Cc1ccc(S(=O)(=O)N2CCN(c3ccc(C(=O)NS(=O)(=O)c4ccc(N[C@H](CCN(C)C)CSc5ccccc5)c([N+](=O)[O-])c4)cc3)CC2)cc1 [N-[(4-{[(2R)-4-(dimethylamino)-1-(phenylsulfanyl)butan-2-yl]amino}-3-nitrobenzene)sulfonyl]-4-{4-[(4-methylbenzene)sulfonyl]piperazin-1-yl}benzamide]
